Broadly, the half-life is the time in which the quantity being followed falls by half.

One data set has as its system human platelets. Briefly: Platelet aggregation inhibitory activities in vitro (ADP-induced, human platelet-rich plasma). Format: cell-based. The following applies: for IC50: Homo sapiens, Platelet, ADP final concentration 4 μM, 37° C.; for platelet aggregation inhibitory activities (in words): compared with natural type prostacyclin or other compounds. Here is the method:
Platelet aggregation inhibitory activities of test compounds in vitro were measured by using human platelets.
Into a plastic container containing one volume of a 3.8% sodium citrate solution, 9 volumes of blood of a healthy person was collected, and the container was gently turned over for admixing. The mixture was centrifugally separated at 1,000 rpm for 10 minutes at room temperature, whereupon the supernatant was taken as a platelet-rich plasma (PRP). The lower layer was further centrifugally separated at 3,000 rpm for 15 minutes at room temperature, whereupon the supernatant was taken as a platelet-poor plasma (PPP). PRP was diluted with PPP so that the number of platelets became about 30×10^4 /μl. An aggregometer was calibrated, and then 200 μl of PRP thus prepared was heated at 37° C. for one minute. Then, 25 μl of a solution obtained by diluting a test compound with a physiological sodium chloride solution, was added thereto, and the mixture was heated at 37° C. for one minute. Then, […] of an adenosine-5'-1.5 sodium diphosphate (ADP, Sigma) solution was added thereto so that the final concentration would be 4 μM, whereby the change in transmittance was recorded by the aggregometer. The transmittance was measured with respect to the solution immediately after dissolving the test compound in the physiological sodium chloride solution and the solution after leaving it at 25° C. for 24 hours. The solution of the test compound was dissolved in a physiological sodium chloride solution and then used by diluting it with a physiological sodium chloride solution.
Aggregation inhibition (%)=(1-T/T0)×100
T0 : Transmittance in the case where the physiological sodium chloride solution was added.
T: Transmittance in the case where the test compound was added.

Data set [1] is described as follows: Stability test in an aqueous solution. The following applies: for half-life / remaining at 168 h / remaining at 480 h: physiological saline, 25° C., 10 μg/ml in physiological sodium chloride solution; for remaining at 168 h: 7 days, read-out: Remaining ratio 7 days; for remaining at 480 h: 20 days, read-out: Remaining ratio 20 days. The format is physicochemical. As for the experimental part: A test compound was dissolved in ethanol to a concentration of 1 mg/ml. Then, it was diluted with a physiological sodium chloride solution to obtain a solution having a concentration of 10 μg/ml. The solution was stored at 25° C., and the remaining ratio of the test compound was measured as time passed. The remaining ratio was quantitatively analyzed by an internal standard (methyl benzoate) method using high performance liquid chromatography (Shimadzu LC9A, SPC-6AU; Milipore 805-DS). The column used was YMC AM312 (ODS), and the eluent used was a solvent mixture of acetonitrile and a 1% triethylamine-phosphoric acid buffer solution (pH6.3).

The conditions of data set [2]: cited from earlier work.
Where [3] appears, read: solution immediately after dissolving, read-out: IC50 Immediately after preparation.
Where [4] appears, read: solution left at 25° C. for 24 hours, read-out: IC50 24 hours later.

SMILES strings stand for the structures. Values after ≈ are worked out from the molar mass of the structure shown. Where two headings read alike, the source gives them in different places.

Take `CCCCC[C@H](O)/C=C/[C@@H]1[C@H]2C/C(=C/CCCC(=O)O)O[C@H]2C[C@H]1O` [PGI2 Na, reference compound]: the values for the IC50 in the data set on human platelets (setting [3]) and in the data set with human platelets (setting [4]) were 0.0021 µg/mL (≈ 0.00596 µM) and above 0.2 µg/mL, respectively.

On to `Cc1cccc(C[C@@H](O)/C=C/[C@@H]2[C@@H]3[C@H](C[C@H]2O)O/C(=C\CCCC(=O)O)C3(F)F)c1` [Compound 29, sodium 5-[(1S,5R,6R,7R)-2-oxa-4,4-difluoro-7-hydroxy-6-{(3R)-3-hydroxy-4-(3-methylphenyl)-E-1-butenyl}bicyclo[3.3.0]octan-3-ylidene]pentanoate], for which the IC50 in the data set on human platelets (setting [3]) was above 0.2 µg/mL. In addition, in the data set with human platelets (setting [4]), the IC50 was above 0.2 µg/mL. In data set [1], the half-life is above 90 days, the remaining at 168 h turned out to be 99.1% and the remaining at 480 h was determined as 99.3%.

With `CCCCC[C@H](O)C#C[C@@H]1[C@@H]2[C@H](C[C@H]1O)O/C(=C\CCCC(=O)O)C2(F)F` [Compound 31, sodium 5-[(1S,5R,6R,7R)-2-oxa-4,4-difluoro-7-hydroxy-6-{(3S)-3-hydroxy-1-octynyl}bicyclo[3.3.0]octan-3-ylidene]pentanoate, reference compound], the IC50 in the data set with human platelets (setting [3]) came to 0.0737 µg/mL. Further, the IC50 with human platelets (setting [4]) amounted to 0.0758 µg/mL. Moreover, the “platelet aggregation inhibitory activities (in words)” value in the data set on human platelets is reported as “low activities as compared with other compounds”. Further, the “physiological activities (in words)” value in the data set with human platelets (stated generally as physiological activities) was “physiological activities are inadequate and substantially lower than natural type prostacyclin”. Further, in data set [1], the “chemical stability (in words)” value is “chemical stability substantially equal to other compounds”, the half-life was above 90 days, the remaining at 168 h was found to be 99.5% and the remaining at 480 h was determined as 97%.

Turning to `CCCC[C@H](C)C[C@@H](O)/C=C/[C@@H]1[C@@H]2[C@H](C[C@H]1O)O/C(=C\CCCC(=O)O)C2(F)F` [Compound 23], the IC50 with human platelets (setting [3]) was found to be 0.059 µg/mL (≈ 0.142 µM). The IC50 with human platelets (setting [4]) is 0.0582 µg/mL (≈ 0.14 µM). For the same compound, in data set [1], the half-life was above 90 days, the remaining at 168 h is 100% and the remaining at 480 h was 100%.

As to `CCC#CC[C@H](C)[C@H](O)/C=C/[C@@H]1[C@@H]2[C@H](C[C@H]1O)O/C(=C\CCCC(=O)O)C2(F)F` [Compound 17, sodium 5-[(1S,5R,6R,7R)-2-oxa-4,4-difluoro-7-hydroxy-6-{(3S,4S)-3-hydroxy-4-methyl-E-1-nonen-6-ynyl}bicyclo[3.3.0]octan-3-ylidene]pentanoate], the IC50 in the data set with human platelets (setting [3]) was 0.00038 µg/mL. For the same compound, in the data set with human platelets (setting [4]), the IC50 came to 0.00039 µg/mL. In the data set on human platelets, the “platelet aggregation inhibitory activities (in words)” value was “even higher activities than natural type prostacyclin”. For the same compound, in data set [1], the half-life was above 90 days, the remaining at 168 h was found to be 102% and the remaining at 480 h was determined as 100%.

Regarding `CCCCC[C@H](O)C#C[C@@H]1[C@H]2C/C(=C/CCCC(=O)O)O[C@H]2C(F)(F)[C@H]1O` [10,10-difluoro-13,14-dehydroprostacyclin], the half-life result in data set [2] (reported in literature) is “about 24 hours”.

On to `CCC#CCC(C)[C@H](O)/C=C/[C@@H]1[C@@H]2[C@H](C[C@H]1O)O/C(=C\CCCC(=O)O)C2(F)F` (stereo partly drawn) [Compound 15, sodium 5-[(1S,5R,6R,7R)-2-oxa-4,4-difluoro-7-hydroxy-6-{(3S,4RS)-3-hydroxy-4-methyl-E-1-nonen-6-ynyl}bicyclo-[3.3.0]octan-3-ylidene]pentanoate], for which the IC50 in the data set with human platelets (setting [3]) is 0.00079 µg/mL. The IC50 in the data set with human platelets (setting [4]) stood at 0.00078 µg/mL. Besides, in the data set on human platelets, the “platelet aggregation inhibitory activities (in words)” value is recorded as “even higher activities than natural type prostacyclin”. For the same compound, in data set [1], the half-life was above 90 days, the remaining at 168 h amounted to 98.9% and the remaining at 480 h was 97.8%.

On to `CCCCC[C@H](O)/C=C/[C@@H]1[C@@H]2[C@H](C[C@H]1O)O/C(=C\CCCC(=O)O)C2(F)F` [Compound 19, sodium 5-[(1S,5R,6R,7R)-2-oxa-4,4-difluoro-7-hydroxy-6-{(3S)-3-hydroxy-E-1-octenyl}bicyclo[3.3.0]octan-3-ylidene]pentanoate], for which the IC50 in the data set with human platelets (setting [3]) amounted to 0.0561 µg/mL. In the data set with human platelets (setting [4]), the IC50 worked out at 0.0604 µg/mL. In addition, in data set [1], the half-life is above 90 days, the remaining at 168 h was determined as 99.3% and the remaining at 480 h turned out to be 97.2%.

As to `CCC#CCC(C)[C@@H](O)/C=C/[C@@H]1[C@@H]2[C@H](C[C@H]1O)O/C(=C\CCCC(=O)O)C2(F)F` (stereo partly drawn) [Compound 25, sodium 5-[(1S,5R,6R,7R)-2-oxa-4,4-difluoro-7-hydroxy-6-{(3R,4RS)-3-hydroxy-4-methyl-E-1-none-6-ynyl}bicyclo[3.3.0]octan-3-ylidene]pentanoate], the IC50 in the data set on human platelets (setting [3]) worked out at 0.027 µg/mL. The IC50 with human platelets (setting [4]) is 0.0281 µg/mL. Further, in data set [1], the half-life is above 90 days, the remaining at 168 h came to 101% and the remaining at 480 h is 99.8%.

`O=C(O)CCC/C=C1\O[C@H]2C[C@@H](O)[C@H](/C=C/[C@@H](O)C3CCCC3)[C@H]2C1(F)F` [Compound 13, sodium 5-[(1S,5R,6R,7R)-2-oxa-4,4-difluoro-7-hydroxy-6-{(3S)-3-cyclopentyl-3-hydroxy-E-1-propenyl}bicylco[3.3.0]octan-3-ylidene]pentanoate]: the IC50 with human platelets (setting [3]) worked out at 0.0663 µg/mL. For the same compound, the IC50 in the data set with human platelets (setting [4]) is 0.0629 µg/mL. Also, in data set [1], the half-life was above 90 days, the remaining at 168 h was 100% and the remaining at 480 h amounted to 98%.

`CCC#CC[C@H](C)[C@@H](O)/C=C/[C@@H]1[C@@H]2[C@H](C[C@H]1O)O/C(=C\CCCC(=O)O)C2(F)F` [Compound 27]: the IC50 in the data set with human platelets (setting [3]) was 0.0084 µg/mL (≈ 0.0204 µM). The IC50 in the data set with human platelets (setting [4]) came to 0.008 µg/mL (≈ 0.0194 µM). Further, the “platelet aggregation inhibitory activities (in words)” value in the data set with human platelets was “activities close to natural type prostacyclin”. In addition, in data set [1], the half-life was above 90 days, the remaining at 168 h amounted to 99.5% and the remaining at 480 h was 100%.

With `CCCCC[C@H](O)/C=C/[C@@H]1[C@H]2C/C(=C/CCCC(=O)O)O[C@H]2C[C@H]1O` [natural type prostacyclin], the half-life entry in data set [2] (as mentioned above, conditions not restated) is listed as “about 10 minutes”. Moreover, the “half-life in an aqueous solution” value in data set [2] (pH7.48 at 25° C.) is 0.00729 days.

In the case of `Cc1cccc(C[C@H](O)/C=C/[C@@H]2[C@@H]3[C@H](C[C@H]2O)O/C(=C\CCCC(=O)O)C3(F)F)c1` [Compound 21, sodium 5-[(1S,5R,6R,7R)-2-oxa-4,4-difluoro-7-hydroxy-6-{(3S)-3-hydroxy-4-(3-methylphenyl)-E-1-butenyl}bicyclo[3.3.0]octan-3-ylidene]pentanoate], the IC50 in the data set on human platelets (setting [3]) is 0.0087 µg/mL. Further, the IC50 with human platelets (setting [4]) was 0.0089 µg/mL. For the same compound, in data set [1], the half-life was above 90 days, the remaining at 168 h is 101% and the remaining at 480 h came to 100%.

Regarding `CCCC[C@H](C)C[C@H](O)/C=C/[C@@H]1[C@@H]2[C@H](C[C@H]1O)O/C(=C\CCCC(=O)O)C2(F)F` [Compound 11, sodium 5-[(1S,5R,6R,7R)-2-oxa-4,4-difluoro-7-hydroxy-6-{(3S,5S)-3-hydroxy-5-methyl-E-1-nonenyl}bicyclo[3.3.0]octan-3-ylidene]pentanoate], the IC50 with human platelets (setting [3]) was 0.0086 µg/mL. In addition, the IC50 in the data set with human platelets (setting [4]) was found to be 0.0078 µg/mL. In the data set with human platelets, the “platelet aggregation inhibitory activities (in words)” value is recorded as “activities close to natural type prostacyclin”. Further, in data set [1], the half-life is above 90 days, the remaining at 168 h was 102% and the remaining at 480 h was determined as 96.8%.
